# Experiments:
# [1] = biological target: farnesyl protein transferase (UniProt Q02293+Q04631); assay: FPT IC50 (inhibition of farnesyl protein transferase, in vitro enzyme assay); assay type: biochemical; details: for IC50: in vitro enzyme assay per WO 95/10516
# Description: (§1) FPT IC50 (inhibition of farnesyl protein transferase, in vitro enzyme assay) and COS Cell IC50 (Cell-Based Assay) were determined following the assay procedures described in WO 95/10516, published Apr. 20. 1995. GGFT IC50 (inhibition of geranylgeranyl protein transferase, in vitro enzyme assay), Cell Mat Assay, and anti-tumor activity (in vivo anti-tumor studies) could be determined by the assay procedures described in WO 95/10516. The disclosure of WO 95/10516 is incorporated herein by reference thereto.
# In Table 10, “nM” represents nanomolar.
# [2] = test system: COS Cell; assay: COS Cell IC50 (Cell-Based Assay); details: COS cells, cell-based assay per WO 95/10516
# Description: as §1
SMILES,IC50 [1],also measured
COc1ccc2c(c1)CC(CC(=O)N1CCC([C@H]3c4ncc(Br)cc4CCc4cc(Cl)cc(Br)c43)CC1)C2=O (stereo partly shown) [Compound 17.0B],–,FPT inhibition at 140 nM (printed in FPT IC50 column) ([1]; at 140 nM): 32% at 140
O=C1CCCCC1CCC(=O)N1CCC([C@H]2c3ncc(Br)cc3CCc3cc(Cl)cc(Br)c32)CC1 (stereo partly shown) [Compound 19.0],10.7 nM,–
O=C(C=C1CCC2(CC1)OCCO2)N1CCC([C@H]2c3ncc(Br)cc3CCc3cc(Cl)cc(Br)c32)CC1 [Compound 21.0],10.7 nM,–
O=C(CN1CCC2(CC1)SCCS2)N1CCC([C@H]2c3ncc(Br)cc3CCc3cc(Cl)cc(Br)c32)CC1 [Compound 28.0],35 nM,–
CC(C)(C)[Si](C)(C)OCCON=C1CCC(CC(=O)N2CCC([C@H]3c4ncc(Br)cc4CCc4cc(Cl)cc(Br)c43)CC2)CC1 (stereo partly shown) [Compound 32.0],97 nM,–
O=C(C1CCC2(CC1)OCCO2)N1CCC([C@H]2c3ncc(Br)cc3CCc3cc(Cl)cc(Br)c32)CC1 [Compound 34.0],10.7 nM,–
CON=C1CCC(C(=O)N2CCC([C@H]3c4ncc(Br)cc4CCc4cc(Cl)cc(Br)c43)CC2)CC1 (stereo partly shown) [Compound 35.0],8.2 nM,–
CC(C)(C)OC(=O)NC1CCC(C(=O)N2CCC(C3c4ncc(Br)cc4CCc4cc(Cl)cc(Br)c43)CC2)CC1 (stereo not shown) [Compound 36.0],67 nM,–
N[C@H]1CC[C@@H](C(=O)N2CCC([C@H]3c4ncc(Br)cc4CCc4cc(Cl)cc(Br)c43)CC2)CC1 [Compound 37.0],14 nM,–
CCOC(=O)C(=O)NC1CCC(C(=O)N2CCC(C3c4ncc(Br)cc4CCc4cc(Cl)cc(Br)c43)CC2)CC1 (stereo not shown) [Compound 39.0],23 nM,–
CC(C)(C)OC(=O)NC1CCCC(C(=O)N2CCC(C3c4ncc(Br)cc4CCc4cc(Cl)cc(Br)c43)CC2)C1 (stereo not shown) [Compound 43.0],150 nM,–
NC1CCCC(C(=O)N2CCC(C3c4ncc(Br)cc4CCc4cc(Cl)cc(Br)c43)CC2)C1 (stereo not shown) [Compound 44.0],13.9 nM,–
NC(=O)NC1CCCC(C(=O)N2CCC(C3c4ncc(Br)cc4CCc4cc(Cl)cc(Br)c43)CC2)C1 (stereo not shown) [Compound 45.0],17.6 nM,–
CCOC(=O)C(=O)NC1CCCC(C(=O)N2CCC(C3c4ncc(Br)cc4CCc4cc(Cl)cc(Br)c43)CC2)C1 (stereo not shown) [Compound 46.0],34 nM,–
NC(=O)C(=O)NC1CCCC(C(=O)N2CCC(C3c4ncc(Br)cc4CCc4cc(Cl)cc(Br)c43)CC2)C1 (stereo not shown) [Compound 49.1],15.6 nM,–
O=C(C1CCC(O)CC1)N1CCC(C2c3ncc(Br)cc3CCc3cc(Cl)cc(Br)c32)CC1 (stereo not shown) [Compound 68.0],> 160 nM,–
O=C(C1CCC(O)CC1)N1CCC(C2c3ncc(Br)cc3CCc3cc(Cl)cc(Br)c32)CC1 (stereo not shown) [Compound 70.0],11 nM,–

# Continued by falling IC50 [1], values first:
IC50 [1],SMILES,also measured
7.8 nM,CC(=O)OC1CCC(C(=O)N2CCC(C3c4ncc(Br)cc4CCc4cc(Cl)cc(Br)c43)CC2)CC1 (stereo not shown) [Compound 69.0],IC50 [2]: 30 nM
7 nM,C[C@]1(CCC(=O)N2CCC([C@H]3c4ncc(Br)cc4CCc4cc(Cl)cc(Br)c43)CC2)CCCCC1=O [Compound 20.0],–
6.7 nM,CON=C1CCN(CC(=O)N2CCC([C@H]3c4ncc(Br)cc4CCc4cc(Cl)cc(Br)c43)CC2)CC1 [Compound 27.0],–
6.2 nM,NC(=O)NC1CCC(C(=O)N2CCC(C3c4ncc(Br)cc4CCc4cc(Cl)cc(Br)c43)CC2)CC1 (stereo not shown) [Compound 38.0],–
6 nM,O=C(CN1CCC(=NO)CC1)N1CCC([C@H]2c3ncc(Br)cc3CCc3cc(Cl)cc(Br)c32)CC1 [Compound 26.0],–
5.1 nM,O=C1CCC(C(=O)N2CCC([C@H]3c4ncc(Br)cc4CCc4cc(Cl)cc(Br)c43)CC2)CC1 [Compound 33.0],–
5 nM,O=C1CCCCC1CC(=O)N1CCC([C@H]2c3ncc(Br)cc3CCc3cc(Cl)cc(Br)c32)CC1 (stereo partly shown) [Compound 18.0],–
4.7 nM,O=C(CC1CCC2(CC1)OCCO2)N1CCC([C@H]2c3ncc(Br)cc3CCc3cc(Cl)cc(Br)c32)CC1 [Compound 24.0],–
4.4 nM,CON=C1CCC(CC(=O)N2CCC([C@H]3c4ncc(Br)cc4CCc4cc(Cl)cc(Br)c43)CC2)CC1 (stereo partly shown) [Compound 25.0],–
4.3 nM,CC(=O)NN=C1CCC(CC(=O)N2CCC([C@H]3c4ncc(Br)cc4CCc4cc(Cl)cc(Br)c43)CC2)CC1 (stereo partly shown) [Compound 30.0],–
3 nM,NC(=O)NN=C1CCC(CC(=O)N2CCC([C@H]3c4ncc(Br)cc4CCc4cc(Cl)cc(Br)c43)CC2)CC1 (stereo partly shown) [Compound 29.0],–
2.9 nM,CS(=O)(=O)NC1CCC(C(=O)N2CCC(C3c4ncc(Br)cc4CCc4cc(Cl)cc(Br)c43)CC2)CC1 (stereo not shown) [Compound 40.0],–
2.7 nM,O=C(CC1CCC(=NO)CC1)N1CCC([C@H]2c3ncc(Br)cc3CCc3cc(Cl)cc(Br)c32)CC1 (stereo partly shown) [Compound 23.0],–
2.6 nM,O=C1CCN(CC(=O)N2CCC([C@H]3c4ncc(Br)cc4CCc4cc(Cl)cc(Br)c43)CC2)CC1 [Compound 14.0],–
2.2 nM,O=C1CCC(CC(=O)N2CCC([C@H]3c4ncc(Br)cc4CCc4cc(Cl)cc(Br)c43)CC2)CC1 [Compound 13.0],–
1.9 nM,O=C(O)CON=C1CCC(CC(=O)N2CCC([C@H]3c4ncc(Br)cc4CCc4cc(Cl)cc(Br)c43)CC2)CC1 (stereo partly shown) [Compound 31.0],–
